Entries after “also recorded” stand apart in the source; their conditions may differ.

The values that follow come from patent publication US6410034B1, “Dermal absorption-promoting agent” (Takasago International Corporation, priority 1998, dated 2002).

The test system of test [1] is skin of Yucatan Micropig. Briefly: Dermal permeation test of indomethacin (IM), Example 1, water/ethanol samples, modified Franz diffusion cell. Format: in vitro ADME. The following applies: indomethacin 0.05 g, promoting agent 0.3 g, water 6.0 ml / ethanol 4.0 ml, 37° C., 30 to 48 hours. An excerpt: (§1) A lipophilic agent indomethacin (IM) and a hydrophilic agent antipyrine (ANP) were used to compare the dermal absorption-promoting effect of p-menthane-3,8-diol (MDM: mixture of trans and cis forms) with those of l-menthol (LM) and 3-l-menthoxypropane-1,2-diol (MPD) together with a control.
(§2) According to the formulations shown in Table 1 (IM) and Table 2 (ANP), each of the three dermal absorption-promoting agents was employed, dissolved in ethanol and combined with water to prepare a sample. The samples thus prepared were stored at 37° C. until use.
(§3) A skin of Yucatan Micropig [5 month-old, male, NIPPON CHARLES RIVER (KK)] stored frozen at −80° C. was thawed at room temperature and, after removing an unwanted fat adhering to the skin, cut into pieces, each in about 2 cm square, which were subjected to a permeation test.
(§4) In the permeation test, a diffusion cell of a modified Franz type (valid surface area: 1.1 cm^2, receptor phase: 16 ml) containing a phosphate buffer, pH7.1, was provided on the receptor phase side, which was stirred with a star-head magnet at 600 rpm with keeping at 37° C. […] A receptor phase fractionated was subjected to a high pressure liquid chromatography (HPLC) to quantify the drug which had permeated. […]
(§5) IM and ANP were determined using an UV spectrophotometer model SPD-6A (SHIMADZU) at wavelengths of 254 nm and 245 nm, respectively. […]

Test [2] relates to skin of Yucatan Micropig. In words: Dermal permeation test of antipyrine (ANP), Example 1, water/ethanol samples, modified Franz diffusion cell. Particulars: promoting agent dissolved in ethanol and combined with water, 37° C., 30 to 48 hours. The test is classed as in vitro ADME.
Excerpt: as §1, §2, §3, §4, §5

Test [3] has as its system skin of Yucatan Micropig. In words: Dermal permeation test of IM, Example 2, water/1,3-butylene glycol samples. Particulars: indomethacin 0.05 g, promoting agent 0.3 g, water 6.0 ml / 1,3-BG 4.0 ml. The test is classed as in vitro ADME. The method, then: as §3
(§6) In the permeation test, a diffusion cell of a modified Franz type (valid surface area: 1.1 cm^2, receptor phase: 16 ml) containing a phosphate buffer, pH7.1, was provided on the receptor phase side, which was stirred with a star-head magnet at 600 rpm with keeping at 37° C. On the donor side, 0.5 ml of a sample solution was contained and closed with a glass ball in order to prevent the evaporation of the sample solution. At a predetermined time, an aliquot was sampled and an equal volume of a buffer solution was supplemented. A receptor phase fractionated was subjected to a high pressure liquid chromatography (HPLC) to quantify the drug which had permeated. The permeation test was continued over a period of 30 to 48 hours.
A lipophilic agent indomethacin (IM) was used to compare the dermal absorption-promoting effect of p-menthane-3,8-diol (MDM: mixture of trans and cis forms) with those of l-menthol (LM) together with a control.

The test system of test [4] is skin of Yucatan Micropig. Briefly: Dermal permeation test of IM, Example 3, water/1,3-butylene glycol samples, MDM, MPD and 1:1 combination. Format: in vitro ADME. The following applies: indomethacin 0.05 g, promoting agent 0.3 g total (combination 0.15 g + 0.15 g), water 6.0 ml / 1,3-BG 4.0 ml. The method, then: as §3
as §6, with “hours. […]” for “hours.”

In test [5] the test system is mosquito. Particulars: known from prior art; cited from earlier work.
For test [6] the following is noted: isosorbide dinitrate in an aqueous suspension; Fragrance Journal, p34, 1996-4; cited from earlier work.
The conditions of test [7]: combined together with indomethacin; YAKUZAIGAKU vol.56 No.3 (1996), DDS Vol. 12 No. 2 (1997); cited from earlier work.

For `CC1CCC(C(C)(C)O)C(O)C1` (centres unmarked) [MDM, p-menthane-3,8-diol], the “dermal permeation-promoting ability (cumulative permeation of IM vs time, FIG. 1)” value was “not as high as that of LM but was higher than that of MPD; also recorded: promoted the dermal permeation of IM” in test [1]; “promoted the dermal permeation of both of lipophilic agent indomethacin and hydrophilic antipyrine” in test [1] (listed as p-menthane-3,8-diol). Further, the “dermal permeation-promoting ability (cumulative permeation of ANP vs time, FIG. 2)” value in test [2] is “exhibited a dermal permeation-promoting ability, although the ability was not as high as that of LM and MPD; also recorded: promoted the dermal permeation of ANP”; in test [2] (listed as p-menthane-3,8-diol), “promoted the dermal permeation of both of lipophilic agent indomethacin and hydrophilic antipyrine”. For the same compound, the “dermal permeation-promoting ability (cumulative permeation of IM vs time, FIG. 3)” value in test [3] is given as “exhibited a dermal permeation-promoting ability, although the ability was not as high as that of LM; also recorded: promoted the dermal permeation of IM”. Also, in test [4], the “dermal permeation-promoting ability (cumulative permeation of IM vs time, FIG. 4)” value is reported as “higher than that of MPD”. The “repelling effect on a mosquito” value in test [5] is reported as “known to have a repelling effect on a mosquito”.
With `CC12CCC(CC1)C(C)(C)O2` [1,8-cineol], the “promotion of dermal permeation of isosorbide dinitrate” value in test [6] is “promoted greatly”.
Consider `CC(C)[C@@H]1CC[C@@H](C)C[C@H]1O` [LM, l-menthol], for which the “promotion of dermal permeation of isosorbide dinitrate” value in test [6] was “promoted greatly”. Also, in test [7], the “promotion of dermal absorption of indomethacin” value is given as “promotes the dermal absorption of indomethacin”.
For the compound `CC1CCC(C(C)C)C(OCC(O)CO)C1` (stereo not drawn) [MPD, 3-l-menthoxypropane-1,2-diol], the “promotion of dermal absorption of indomethacin” value in test [7] is given as “somewhat lower than that of l-menthol; also recorded: promotes the dermal absorption of indomethacin”.
